Assay results: ChEMBL document CHEMBL3217682, “Discovery of highly potent antifungal triazoles by structure-based lead fusion” (2011)
Converted amounts (≈) assume the structure as drawn.

What was measured:
Assay type in all cases: functional
Candida albicans = experiment: Antifungal activity against Candida albicans assessed as turbidity after 24 hrs by serial dilution method
Cryptococcus neoformans = experiment: Antifungal activity against Cryptococcus neoformans assessed as turbidity after 72 hrs by serial dilution method
Candida tropicalis [1] = experiment: Antifungal activity against Candida tropicalis assessed as turbidity after 24 hrs by serial dilution method
Candida parapsilosis [2] = experiment: Antifungal activity against Candida parapsilosis assessed as turbidity after 24 hrs by serial dilution method; details: Lodderomyces parapsilosis
Kluyveromyces marxianus [3] = experiment: Antifungal activity against Candida kefyr assessed as turbidity after 24 hrs by serial dilution method
Trichophyton rubrum = experiment: Antifungal activity against Trichophyton rubrum assessed as turbidity after 24 to 72 hrs by serial dilution method
Aspergillus fumigatus = experiment: Antifungal activity against Aspergillus fumigatus assessed as turbidity after 7 days by serial dilution method; details: 168 h
Candida tropicalis [4] = experiment: Ratio of fluconazole MIC80 to compound MIC80 for Candida tropicalis
Candida parapsilosis [5] = experiment: Ratio of fluconazole MIC80 to compound MIC80 for Candida parapsilosis
Kluyveromyces marxianus [6] = experiment: Ratio of fluconazole MIC80 to compound MIC80 for Candida kefyr

| SMILES | MIC80 (Candida albicans) [µM] | MIC80 (Cryptococcus neoformans) [µM] | MIC80 (Candida tropicalis [1]) [µM] | MIC80 (Candida parapsilosis [2]) [µM] | MIC80 (Kluyveromyces marxianus [3]) [µM] | MIC80 (Trichophyton rubrum) [µM] | MIC80 (Aspergillus fumigatus) [µM] | Ratio (Candida tropicalis [4]) | Ratio (Candida parapsilosis [5]) | Ratio (Kluyveromyces marxianus [6]) |
| --- | --- | --- | --- | --- | --- | --- | --- | --- | --- | --- |
| OC(CN1CCC(OCc2ccccc2)CC1)(Cn1cncn1)c1ccc(F)cc1F (stereo not drawn) | 0.01 (≈ 0.00428 µg/mL) | 0.04 (≈ 0.0171 µg/mL) | 0.04 (≈ 0.0171 µg/mL) | 0.04 (≈ 0.0171 µg/mL) | 0.15 (≈ 0.0643 µg/mL) | 0.15 (≈ 0.0643 µg/mL) | 2.33 (≈ 0.998 µg/mL) | 82 | 82 | 82 |
| OC(Cn1cncn1)(Cn1cncn1)c1ccc(F)cc1F [FLUCONAZOLE] | 0.82 (≈ 0.251 µg/mL) | 0.2 (≈ 0.0613 µg/mL) | 3.26 (≈ 0.998 µg/mL) | 0.82 (≈ 0.251 µg/mL) | 3.26 (≈ 0.998 µg/mL) | 3.26 (≈ 0.998 µg/mL) | > 209 | – | – | – |
| OC(CN1CCC(OCc2ccc(Cl)c(Cl)c2)CC1)(Cn1cncn1)c1ccc(F)cc1F (stereo not drawn) | 0.13 (≈ 0.0647 µg/mL) | 0.03 (≈ 0.0149 µg/mL) | 0.13 (≈ 0.0647 µg/mL) | 0.03 (≈ 0.0149 µg/mL) | 0.5 (≈ 0.249 µg/mL) | 0.03 (≈ 0.0149 µg/mL) | 2.01 (≈ 1 µg/mL) | – | – | – |
| OC(CN1CCC(OCc2cccc(Br)c2)CC1)(Cn1cncn1)c1ccc(F)cc1F (stereo not drawn) | 0.01 (≈ 0.00507 µg/mL) | 0.12 (≈ 0.0609 µg/mL) | 0.12 (≈ 0.0609 µg/mL) | 0.12 (≈ 0.0609 µg/mL) | 0.49 (≈ 0.249 µg/mL) | 0.12 (≈ 0.0609 µg/mL) | 1.97 (≈ 1 µg/mL) | 82 | 82 | 82 |
| OC(CN1CCC(OCc2ccccc2F)CC1)(Cn1cncn1)c1ccc(F)cc1F (stereo not drawn) | 0.01 (≈ 0.00446 µg/mL) | 0.03 (≈ 0.0134 µg/mL) | 0.03 (≈ 0.0134 µg/mL) | 0.03 (≈ 0.0134 µg/mL) | 0.56 (≈ 0.25 µg/mL) | 0.14 (≈ 0.0625 µg/mL) | 2.24 (≈ 1 µg/mL) | 82 | 82 | 82 |
| CN(CC(O)(Cn1cncn1)c1ccc(F)cc1F)C1CCN(Cc2ccccc2)CC1 (stereo not drawn) | 0.57 (≈ 0.252 µg/mL) | 2.26 (≈ 0.998 µg/mL) | 2.26 (≈ 0.998 µg/mL) | 0.57 (≈ 0.252 µg/mL) | 2.26 (≈ 0.998 µg/mL) | 2.26 (≈ 0.998 µg/mL) | 145 (≈ 64 µg/mL) | – | – | – |
| CN(CCCCOc1ccccc1)CC(O)(Cn1cncn1)c1ccc(F)cc1F (stereo not drawn) | 0.04 (≈ 0.0167 µg/mL) | 0.15 (≈ 0.0625 µg/mL) | 0.04 (≈ 0.0167 µg/mL) | 0.15 (≈ 0.0625 µg/mL) | 0.6 (≈ 0.25 µg/mL) | 0.6 (≈ 0.25 µg/mL) | > 154 | – | – | – |
| OC(CN1CCC(OCc2cccc(Cl)c2)CC1)(Cn1cncn1)c1ccc(F)cc1F (stereo not drawn) | 0.14 (≈ 0.0648 µg/mL) | 0.03 (≈ 0.0139 µg/mL) | 0.14 (≈ 0.0648 µg/mL) | 0.03 (≈ 0.0139 µg/mL) | 0.54 (≈ 0.25 µg/mL) | 0.03 (≈ 0.0139 µg/mL) | 2.16 (≈ 1 µg/mL) | – | – | – |
| OC(CN1CCC(OCc2ccc(Cl)cc2Cl)CC1)(Cn1cncn1)c1ccc(F)cc1F (stereo not drawn) | 0.13 (≈ 0.0647 µg/mL) | 0.03 (≈ 0.0149 µg/mL) | 0.13 (≈ 0.0647 µg/mL) | 0.03 (≈ 0.0149 µg/mL) | 0.5 (≈ 0.249 µg/mL) | 0.13 (≈ 0.0647 µg/mL) | 2.01 (≈ 1 µg/mL) | – | – | – |
| OC(CN1CCC(OCc2ccccc2Cl)CC1)(Cn1cncn1)c1ccc(F)cc1F (stereo not drawn) | 0.03 (≈ 0.0139 µg/mL) | 0.03 (≈ 0.0139 µg/mL) | 0.14 (≈ 0.0648 µg/mL) | 0.03 (≈ 0.0139 µg/mL) | 0.54 (≈ 0.25 µg/mL) | 0.14 (≈ 0.0648 µg/mL) | 2.16 (≈ 1 µg/mL) | – | – | – |
| OC(CN1CCC(OCc2ccc(F)cc2)CC1)(Cn1cncn1)c1ccc(F)cc1F (stereo not drawn) | 0.14 (≈ 0.0625 µg/mL) | 0.03 (≈ 0.0134 µg/mL) | 0.03 (≈ 0.0134 µg/mL) | 0.03 (≈ 0.0134 µg/mL) | 0.56 (≈ 0.25 µg/mL) | 0.03 (≈ 0.0134 µg/mL) | 2.24 (≈ 1 µg/mL) | – | – | – |
| N#Cc1ccc(COC2CCN(CC(O)(Cn3cncn3)c3ccc(F)cc3F)CC2)cc1 (stereo not drawn) | 0.03 (≈ 0.0136 µg/mL) | 0.03 (≈ 0.0136 µg/mL) | 0.14 (≈ 0.0635 µg/mL) | 0.01 (≈ 0.00453 µg/mL) | 0.55 (≈ 0.249 µg/mL) | 0.03 (≈ 0.0136 µg/mL) | 0.55 (≈ 0.249 µg/mL) | – | – | – |
